Source: ChEMBL document CHEMBL3217663, “Evaluation of FR901464 analogues in vitro and in vivo” (Medchemcomm, 2011)
Activity calls are given as the source filed them. No cut-off for these calls is given here.

Tests used:
[1] = test system: HCT-116; assay: Antiproliferative activity against human HCT116 cells assessed as growth inhibition after 24 to 72 hrs by MTS assay; format: functional
[2] = Antiproliferative activity against NHLF assessed as growth inhibition after 24 to 72 hrs by MTS assay; conditions: human, NHLF cells
[3] = Antiproliferative activity against HUVEC assessed as growth inhibition after 24 to 72 hrs by MTS assay; format: cell-based; conditions: human, HUVEC cells
[4] = Antiproliferative activity against NHDF assessed as growth inhibition after 24 to 72 hrs by MTS assay; format: cell-based; conditions: human, NHDF cells
[5] = Antiproliferative activity against HMEC assessed as growth inhibition after 24 to 72 hrs by MTS assay; format: cell-based; conditions: human, HMEC cells
[6] = test system: HCT-116; assay: Antitumor activity against human HCT116 cells xenografted in NCr-nu/nu mouse assessed as tumor inhibition rate measured on day 41and 44 at 15 mg/kg, iv once daily for 5 injections after 16 days of tumor cell transplantation; format: functional; conditions: HCT-116, 384 h
[7] = test system: P388; assay: Antiproliferative activity against mouse P388 cells assessed as growth inhibition after 24 to 72 hrs by MTS assay; format: functional
[8] = test system: A549; assay: Antiproliferative activity against human A549 cells assessed as growth inhibition after 24 to 72 hrs by MTS assay; format: functional
[9] = test system: MCF7; assay: Antiproliferative activity against human MCF7 cells assessed as growth inhibition after 24 to 72 hrs by MTS assay; format: functional
[10] = test system: Mus musculus; assay: Toxicity in mouse assessed as body weight loss at 0.5 mg/kg, iv led to the euthanization of mouse on day 9; format: organism-based; design: dose 0.5 mg/kg, route intravenous; conditions: in vivo
[11] = Plasma concentration in mouse at 6 mg/kg, iv after 30 mins; format: ADME, organism-based; design: dose 6 mg/kg, route intravenous
[12] = Toxicity in mouse assessed as tolerated dose compound treated once daily for 5 consecutive days; format: organism-based; conditions: in vivo
[13] = test system: Mus musculus; assay: Toxicity in mouse assessed as death at 0.03 to 3 mg/kg, iv once every 4 days for 3 injections; format: organism-based; design: dose 0.03-3 mg/kg, route intravenous; conditions: in vivo, 96 h
[14] = test system: Mus musculus; assay: Toxicity in mouse assessed as death at >= 1.5 mg/kg, iv compound treated once daily for 5 consecutive days; format: organism-based; design: dose 1.5 mg/kg, route intravenous; conditions: in vivo
[15] = test system: PC-3; assay: Antitumor activity against human PC3 cells xenografted in NCr-nu/nu mouse assessed as tumor weight reduction measured on day 22 at 1 mg/kg, iv once daily for 5 injections; format: functional; conditions: PC-3, 528 h
[16] = Half life in mouse serum; format: ADME
[17] = test system: Mus musculus; assay: Toxicity in mouse assessed as death at 0.5 mg/kg, iv led to the euthanization of mouse on day 9; format: organism-based, NCr; design: dose 0.5 mg/kg, route intravenous; conditions: in vivo
[18] = test system: Mus musculus; assay: Toxicity in mouse assessed as body weight loss at 3 mg/kg, iv once every 4 days for 3 injections; format: organism-based; design: dose 3 mg/kg, route intravenous; conditions: in vivo, 96 h
[19] = test system: Mus musculus; assay: Toxicity in mouse assessed as body weight loss at 1 mg/kg, iv once every 4 days for 3 injections; format: organism-based; design: dose 1 mg/kg, route intravenous; conditions: in vivo, 96 h
[20] = test system: HCT-116; assay: Antitumor activity against human HCT116 cells xenografted in NCr-nu/nu mouse assessed as tumor weight reduction at 1.5 to 3 mg/kg, iv once every 4 days for 3 injections after 16 days of tumor cell transplantation; format: functional, organism-based
[21] = test system: HCT-116; assay: Antitumor activity against human HCT116 cells xenografted in NCr-nu/nu mouse assessed as tumor inhibition rate measured on day 41 at 6 mg/kg, iv once every 4 days for 3 injections after 16 days of tumor cell transplantation; format: functional
[22] = Therapeutic index, ratio of GI50 for human HCT116 cells to GI50 for HMEC; format: cell-based, HCT-116; conditions: HCT116 cells and HMEC cells, read-out: RatioGI50
[23] = Plasma concentration in mouse at 6 mg/kg, iv upto 4 hrs; format: ADME, organism-based; design: dose 6 mg/kg, route intravenous
[24] = test system: MDA-MB-231; assay: Antiproliferative activity against human MDA-MB-231 cells assessed as growth inhibition after 24 to 72 hrs by MTS assay; format: functional
[25] = Therapeutic index, ratio of GI50 for human HCT116 cells to GI50 for NHLF; format: cell-based, HCT-116; conditions: HCT116 cells and NHLF cells, read-out: RatioGI50
[26] = Therapeutic index, ratio of GI50 for human HCT116 cells to GI50 for HUVEC; format: cell-based, HCT-116; conditions: HCT116 cells and HUVEC cells, read-out: RatioGI50
[27] = Therapeutic index, ratio of GI50 for human HCT116 cells to GI50 for NHDF; format: cell-based, HCT-116; conditions: HCT116 cells and NHDF cells, read-out: RatioGI50
[28] = test system: HCT-116; assay: Antitumor activity against human HCT116 cells xenografted in NCr-nu/nu mouse assessed as tumor weight reduction at 6 mg/kg, iv once every 4 days for 3 injections after 16 days of tumor cell transplantation; format: functional
[29] = test system: Mus musculus; assay: Toxicity in mouse assessed as body weight loss at 0.03 to 3 mg/kg, iv once every 4 days for 3 injections; format: organism-based; design: dose 0.03-3 mg/kg, route intravenous; conditions: in vivo, 96 h

Compound | GI50 [1] [nM] | GI50 [2] [nM] | GI50 [3] [nM] | GI50 [4] [nM] | GI50 [5] [nM] | GI50 [9] [nM] | Activity [13] | half-life [16] [min] | Activity [20] | selectivity ratio [22] | GI50 [24] [nM] | selectivity ratio [25] | selectivity ratio [26] | selectivity ratio [27] | other results
COc1cccc2c1C(=O)c1c(O)c3c(c(O)c1C2=O)C[C@@](O)(C(=O)CO)C[C@@H]3O[C@H]1C[C@H](N)[C@H](O)[C@H](C)O1 [DOXORUBICIN] | 70 | 223 | 109 | 462 | 276 |  |  |  |  |  |  |  |  |  | 
CC(=O)O[C@H]1C(=O)[C@@]2(C)[C@H]([C@H](OC(=O)c3ccccc3)[C@]3(O)C[C@H](OC(=O)[C@H](O)[C@@H](NC(=O)c4ccccc4)c4ccccc4)C(C)=C1C3(C)C)[C@]1(OC(C)=O)CO[C@@H]1C[C@@H]2O [PACLITAXEL] |  |  |  |  |  |  |  |  |  |  |  |  |  |  | inhibition in vivo at 15 mg/kg [6]: 81%
CC(=O)O[C@@H](C)/C=C\C(=O)N[C@@H]1C[C@H](C)[C@H](C/C=C(C)/C=C/[C@H]2O[C@](C)(O)C[C@@]3(CO3)[C@@H]2O)O[C@@H]1C | 1 |  |  |  |  | 1 |  |  |  |  |  |  |  |  | GI50 [7]: 1 nM; GI50 [8]: 1 nM
CC(/C=C/[C@H]1OC(C)(C)C[C@@]2(CO2)[C@@H]1O)=C\C[C@@H]1O[C@H](C)[C@H](NC(=O)/C=C\[C@H](C)OC(=O)N2CCOCC2)C[C@@H]1C |  |  |  |  |  |  | Non-toxic | 780 | inactive |  |  |  |  |  | Activity [10]: 6%; concentration at 0.5 h [11]: < 10 ng/mL; MTD at 5 days [12]: 0.5 mg/kg; Activity [14]: Toxic; inhibition in vivo at 1 mg/kg [15]: 26%; Activity [17]: Toxic; Activity [18]: 11%; Activity [19]: 10%; inhibition in vivo at 6 mg/kg [21]: 41%
CO[C@@H]1[C@@H](/C=C/C(C)=C/C[C@@H]2O[C@H](C)[C@H](NC(=O)/C=C\[C@H](C)OC(=O)N3CCOCC3)C[C@@H]2C)OC(C)(C)C[C@@]12CO2 | 1.4 | 12 | 4 | 39 | 9 | 0.4 |  |  |  | 3.5 | 1.1 | 4.6 | 1.5 | 15 | concentration at 4 h [23]: < 10 ng/mL
CC(=O)O[C@@H](C)/C=C\C(=O)N[C@@H]1C[C@H](C)[C@H](C/C=C(C)/C=C/[C@H]2OC(C)(C)C[C@@]3(CO3)[C@@H]2O)O[C@@H]1C | 0.07 | 0.91 | 0.06 | 0.44 | 0.11 | 0.02 | Non-toxic | 120 | inactive | 1.6 | 0.07 | 2.7 | 1 | 6 | inhibition in vivo at 6 mg/kg [28]: 24%; Activity [29]: Non-toxic
